Read-outs that look alike come from different tables or passages of the source.
Assays:
Test in all cases: Agar dilution MIC (CLSI), beta-lactam with or without beta-lactamase inhibitor
Assay type in all cases: cell-based
E. coli NCTC 13352 = details: Class A ESBL strain; for MIC of Ceftazidime + inhibitor: Ceftazidime in combination with inhibitor at 4 mcg/ml
Description: (§1) The biological activity of representative compounds of the invention against various bacterial strains (in combination with another antibacterial agent) was investigated. In a typical study, overnight grown bacterial cultures were diluted appropriately and inoculated on the agar media containing doubling dilutions of the antibiotics. Observation for growth or no growth was performed after 16-20 hours of incubation at 35±2° C. in ambient air. The overall procedure was performed as per Clinical and Laboratory Standards Institute (CLSI) recommendations (Clinical and Laboratory Standards Institute (CLSI), performance Standards for Antimicrobial Susceptibility Testing, 20th Informational Supplement, M 100-S20, Volume 30, No. 1, 2010). Table 1 details potencies of ceftazidime in combination of representative compound according to the invention (compound of formula (I) wherein M is sodium) against various MDR (Multi Drug Resistant) Gram-negative strains producing Class A, C and D beta-lactamase enzymes. The activities are expressed as MICs (mcg/ml). For comparison, the activity of various other known beta-lactamase inhibitors such as clavulanic acid, tazobactam, MK-7655, and NXL-104 are also provided.

E. coli M 50 = details: Class C ESBL strain; for MIC of Ceftazidime + inhibitor: Ceftazidime in combination with inhibitor at 4 mcg/ml
Description: as §1

E. coli 7 MP = details: Class C ESBL strain; for MIC of Ceftazidime + inhibitor: Ceftazidime in combination with inhibitor at 4 mcg/ml
Description: as §1

E. coli NCTC 13351 = details: Class A ESBL strain; for MIC of Ceftazidime + inhibitor: Ceftazidime in combination with inhibitor at 4 mcg/ml
Description: as §1

[1] = system: K. pneumoniae ATCC 700603; details: Class A ESBL strain; for MIC of Ceftazidime + inhibitor: Ceftazidime in combination with inhibitor at 4 mcg/ml
Description: as §1

E. coli B 89 = details: Class C ESBL strain; for MIC of Ceftazidime + inhibitor: Ceftazidime in combination with inhibitor at 4 mcg/ml
Description: as §1

A. baumanni NCTC 13304 = details: Class D ESBL strain; for MIC of Ceftazidime + inhibitor: Ceftazidime in combination with inhibitor at 4 mcg/ml; for MIC of Meropenem + inhibitor: Meropenem in combination with inhibitor at 4 mcg/ml
Description: as §1
(§2) Table 2 details data corresponding to a combination of Meropenem with a compound of Formula (I), wherein M is sodium, against Class D ESBL producing strains. Class D ESBLs producing pathogens that confer a high degree of resistance to carbapenems are a therapeutic problem in the clinical settings since extremely limited treatment options are available to treat them.

A. baumanni NCTC 13305 = details: Class D ESBL strain; for MIC of Ceftazidime + inhibitor: Ceftazidime in combination with inhibitor at 4 mcg/ml; for MIC of Meropenem + inhibitor: Meropenem in combination with inhibitor at 4 mcg/ml
Description: as §1, §2

A. baumanni NCTC 13301 = details: Class D ESBL strain; for MIC of Ceftazidime + inhibitor: Ceftazidime in combination with inhibitor at 4 mcg/ml; for MIC of Meropenem + inhibitor: Meropenem in combination with inhibitor at 4 mcg/ml
Description: as §1, §2

[2] = Ceftazidime alone, read-out: MIC of Ceftazidime, Control
[3] = Meropenem alone, read-out: MIC of Meropenem, Control

SMILES | MIC of Ceftazidime + inhibitor (E. coli NCTC 13352) | MIC of Ceftazidime + inhibitor (E. coli M 50) | MIC of Ceftazidime + inhibitor (E. coli 7 MP) | MIC of Ceftazidime + inhibitor (E. coli NCTC 13351) | MIC of Ceftazidime + inhibitor [1] | MIC of Ceftazidime + inhibitor (E. coli B 89) | MIC of Ceftazidime + inhibitor (A. baumanni NCTC 13304) | MIC of Meropenem + inhibitor (A. baumanni NCTC 13304) | MIC of Ceftazidime + inhibitor (A. baumanni NCTC 13305) | MIC of Meropenem + inhibitor (A. baumanni NCTC 13305) | MIC of Ceftazidime + inhibitor (A. baumanni NCTC 13301) | MIC of Meropenem + inhibitor (A. baumanni NCTC 13301) | also measured
CC(C)(O/N=C(\C(=O)N[C@@H]1C(=O)N2C(C(=O)[O-])=C(C[n+]3ccccc3)CS[C@H]12)c1csc(N)n1)C(=O)O [Ceftazidime] |  |  |  |  |  |  |  |  |  |  |  |  | MIC (E. coli NCTC 13352; Escherichia coli, NCTC13352, Ceftazidime alone, read-out: MIC of Ceftazidime, Control): > 32 µg/mL; MIC (E. coli M 50; Escherichia coli, M50, Ceftazidime alone, read-out: MIC of Ceftazidime, Control): > 32 µg/mL; MIC (E. coli 7 MP; Escherichia coli, 7MP, Ceftazidime alone, read-out: MIC of Ceftazidime, Control): > 32 µg/mL; MIC (E. coli NCTC 13351; Escherichia coli, NCTC13351, Ceftazidime alone, read-out: MIC of Ceftazidime, Control): 32 µg/mL; MIC ([1]; Klebsiella pneumoniae, ATCC700603, Ceftazidime alone, read-out: MIC of Ceftazidime, Control): 32 µg/mL; MIC (E. coli B 89; Escherichia coli, B89, Ceftazidime alone, read-out: MIC of Ceftazidime, Control): > 32 µg/mL; MIC (A. baumanni NCTC 13304; [2]): > 32 µg/mL; MIC (A. baumanni NCTC 13305; [2]): 16 µg/mL; MIC (A. baumanni NCTC 13301; [2]): > 32 µg/mL
O=C(O)[C@H]1/C(=C/CO)O[C@@H]2CC(=O)N21 [Clavulanic acid, clavulanic acid] | 0.5 µg/mL | >32 µg/mL | >32 µg/mL | 0.5 µg/mL | 0.5 µg/mL | >32 µg/mL | >32 µg/mL | 32 µg/mL | 16 µg/mL | 8 µg/mL | >32 µg/mL | 32 µg/mL | 
O=C(NC1CCNCC1)[C@@H]1CC[C@@H]2CN1C(=O)N2OS(=O)(=O)O [MK 7655] | 8 µg/mL | 2 µg/mL | 8 µg/mL | 2 µg/mL | 2 µg/mL | 4 µg/mL | 32 µg/mL | 32 µg/mL | 16 µg/mL | 8 µg/mL | >32 µg/mL | 32 µg/mL | 
C[C@@H](O)[C@H]1C(=O)N2C(C(=O)O)=C(S[C@@H]3CN[C@H](C(=O)N(C)C)C3)[C@H](C)[C@H]12 [Meropenem] |  |  |  |  |  |  |  |  |  |  |  |  | MIC (A. baumanni NCTC 13304; [3]): 32 µg/mL; MIC (A. baumanni NCTC 13305; [3]): 8 µg/mL; MIC (A. baumanni NCTC 13301; [3]): 32 µg/mL
NC(=O)[C@@H]1CC[C@@H]2CN1C(=O)N2OS(=O)(=O)O [NXL104] | 0.5 µg/mL | 1 µg/mL | 4 µg/mL | 0.5 µg/mL | 0.5 µg/mL | 1 µg/mL | 32 µg/mL | 16 µg/mL | 16 µg/mL | 8 µg/mL | >32 µg/mL | 16 µg/mL | 
N#C[C@@H]1CC[C@@H]2CN1C(=O)N2OS(=O)(=O)[O-].[Na+] [Sodium salt of trans-7-oxo-6-(sulphoxy)-1,6-diazabicyclo[3.2.1]-octane-2-carbonitrile] | 0.5 µg/mL | 1 µg/mL | 2 µg/mL | 0.5 µg/mL | 0.5 µg/mL | 1 µg/mL | 32 µg/mL | 2 µg/mL | 16 µg/mL | 2 µg/mL | 32 µg/mL | 4 µg/mL | 
C[C@]1(Cn2ccnn2)[C@H](C(=O)O)N2C(=O)C[C@H]2S1(=O)=O [Tazobactam, tazobactam] | 1 µg/mL | >32 µg/mL | >32 µg/mL | 0.5 µg/mL | 1 µg/mL | >32 µg/mL | >32 µg/mL | 32 µg/mL | 16 µg/mL | 8 µg/mL | >32 µg/mL | 32 µg/mL | 

Reference: patent US20150322067A1, “NITROGEN CONTAINING COMPOUNDS AND THEIR USE” (priority 2011, published 2015)
